How the values were obtained:
Type in all cases: in vivo, human
[1] = test system: breast cancer in postmenopausal women with established osteoporosis; experiment: Large (7704-patient) osteoporosis treatment study of postmenopausal women with established osteoporosis: incidence of breast cancer; conditions: for Relative Risk (Raloxifene to Placebo) of breast cancer / Raloxifene Cases n/N (%): 60 and 120 mg/day; for Raloxifene Cases n/N (%): N estimated
Text: (§1) As support for the utility of the current invention, the interim safety results of Phase III clinical trials with raloxifene are presented, below.
(§2) The majority of cases of breast carcinoma have occurred in the large, ongoing osteoporosis treatment study of 7704 postmenopausal women with established osteoporosis. However additional cases have been reported in smaller studies of postmenopausal women at risk for osteoporosis. The studies reported herein are double-blind and placebo-controlled; most have durations of approximately three years and were designed to determine the efficacy of raloxifene to prevent or treat osteoporosis in postmenopausal women. In addition, the studies provide information on the status of cardiovascular health and other major medical conditions (including the incidence of breast carcinoma). Patients were randomly assigned to receive either placebo, 30 mg, 60 mg, 120 mg or 150 mg of drug per day, orally. All patients and investigators are blinded to study drug assignment (double-blind design). All patients in all groups received daily calcium supplements of approximately 500 mg/day. In addition, patients in the large, 7704-patient treatment study received Vitamin D supplements, 400-600 IU/day.
(§3) Subjects selected for these studies are postmenopausal women (at least 2 years from the time of the last menstrual period), ages range from approximately forty-five to eighty years.
(§4) Typical exclusion criteria from participation in these studies included: l)the presence of serious systemic disease, 2)acute or chronic liver disease, 3)substantially impaired kidney function, 4)subjects who, in the opinion of the investigator, have poor medical or psychiatric risk factors for inclusion in a clinical trial, e.g., drug or alcohol abuse, etc. 5)subjects with any history of cancer within five years of entry into the study, with the exception of superficial lesions, e.g., basal cell carcinoma of the skin 6)the presence of abnormal uterine bleeding. Most important of the exclusion criteria was the exclusion of women with present or past personal history of breast cancer or other estrogen-dependent neoplasia. These exclusion criteria generate a population of subjects which reflects the general population in regard to the risk of developing breast carcinoma, or in other words, those persons at no particular increased risk of developing breast cancer.
(§5) Potential subjects were screened prior to enrollment into the study. Subjects were required to reveal their medical histories and current medical conditions. All potential patients were required either to have a baseline mammogram or ultrasound evaluation of the breast, or to have had one of these procedures in the 12-month period preceding study entry. In most studies, a two-year follow-up mammogram is required; however, annual mammograms are recommended. All subjects with diagnosed and reported carcinomas of the breast were required to discontinue immediately from study participation, and were referred by the site investigator for appropriate oncologic evaluation and care.
(§6) The results shown in Tables 1-4 are for subjects with histopathologic diagnoses of carcinoma of the breast. The data include results from optional one year mammograms, as well as the required baseline and two year follow-up mammograms. Once a diagnosis of breast cancer was made, these subjects were discontinued from the study and their status decoded to reveal the therapy (arm) to which they been assigned (i.e. what study drug they had received).
(§7) For the studies reported in this invention, the number of patients randomly assigned to receive placebo is approximately 3195. The number of patients randomly assigned to receive raloxifene (all doses combined) is approximately 6681. […] Table 1 presents the results for all placebo-controlled studies, with data for all doses of raloxifene pooled. […]

postmenopausal women = experiment: Integrated safety analysis of Phase III clinical trials of raloxifene for prevention or treatment of osteoporosis; conditions: all doses integrated; more than 12,850 patient-years of exposure; nearly 3 years of clinical experience
Text: Because the goal of disease prevention is to protect women from the carcinogenic event (or the occurrence of precancerous lesions) and the subsequent promotion or progression to invasive disease (cancer), prolonged use of a preventive therapeutic agent is necessary (Kelloff et.al. Approaches to the Development and Marketing Approval of Drugs that Prevent Cancer, Cancer Epidemiology, Biomarkers & Prevention, vol 4, pp.1-10, 1995). […] Raloxifene has been studied in more than 12,000 subjects. Extensive integrated data from Phase III clinical trials of raloxifene for the prevention or treatment of osteoporosis in postmenopausal women, has been analyzed for safety. When all doses of raloxifene are integrated, this analysis has included more than 12,850 patient-years of exposure to raloxifene.

[2] = test system: breast cancer in postmenopausal women; experiment: Phase III double-blind placebo-controlled raloxifene trials, all placebo-controlled studies combined: incidence of breast cancer; conditions: for Relative Risk (Raloxifene to Placebo) of breast cancer / Raloxifene Cases n/N (%): all raloxifene doses pooled; for Raloxifene Cases n/N (%): N estimated
Text: as §1, §2, §3, §4, §5
The overall ratio of treatment assignments for randomized patients (raloxifene to placebo) is approximately 2:1.
as §6, §7

[3] = 1-Year Follow-up mammograms (6-18 months)
[4] = 2-year Follow-up mammograms (18-30 months)
[5] = Baseline mammograms (1-6 months)
[6] = diagnosis at least 1 month after therapy assignment
[7] = diagnosis at least 12 months after therapy assignment
[8] = vs placebo, cases at least 12 months after randomization
[9] = vs placebo, diagnosed at least one month after random assignment

O=C(c1ccc(OCCN2CCCCC2)cc1)c1c(-c2ccc(O)cc2)sc2cc(O)ccc12 [Raloxifene]
Raloxifene Cases [1, 3]: 4
Relative Risk of breast cancer [1, 3]: 0.33
Raloxifene Cases [1, 4]: 3
Relative Risk of breast cancer [1, 4]: 0.12
Raloxifene Cases [1, 5]: 5
Relative Risk of breast cancer [1, 5]: 1.25
Relative Risk (Raloxifene to Placebo) of breast cancer [1, 6]: 0.29
Raloxifene Cases n/N (%) [1, 6]: 12/5317
Relative Risk (Raloxifene to Placebo) of breast cancer [1, 7]: 0.14
Raloxifene Cases n/N (%) [1, 7]: 5/5317
decrease in the incidence of breast carcinoma [1, 8]: 86%
decrease in the rate of breast cancer [1, 9]: 71%
tolerability / safety (postmenopausal women): extremely well-tolerated
Raloxifene Cases [2, 3]: 7
Relative Risk of breast cancer [2, 3]: 0.56
Raloxifene Cases [2, 4]: 5
Relative Risk of breast cancer [2, 4]: 0.15
Raloxifene Cases [2, 5]: 5
Relative Risk of breast cancer [2, 5]: 1.20
Relative Risk (Raloxifene to Placebo) of breast cancer [2, 6]: 0.36
Raloxifene Cases n/N (%) [2, 6]: 18/6681
Relative Risk (Raloxifene to Placebo) of breast cancer [2, 7]: 0.23
Raloxifene Cases n/N (%) [2, 7]: 10/6681
breast cancer cases reported in the raloxifene treatment groups ([2]; placebo-controlled trials of at least 6 months duration, more than 1-month of treatment, raloxifene to placebo approximately 2:1): 18 cases
decrease in the incidence of breast cancer [2, 8]: 77%
decrease in the rate of breast cancer [2, 9]: 64%
